Measurements: ChEMBL document CHEMBL1124398, “Full agonists of CCK8 containing a nonhydrolyzable sulfated tyrosine residue” (J Med Chem, 1989)
Starred links: 1 amine or outer side, 2 acyl side, 3 side chain; linkers in the order of their positions; H or OH if unused. Non-standard residues stand in square brackets, D forms with d. Residues, ends and D or L forms follow the SMILES beside them. Phe(4-CH2SO3H) = N[C@@H](Cc1ccc(CS(=O)(=O)O)cc1)C(=O)O; X1 = O=C([C@@H](Cc1ccc(CS(=O)(=O)O)cc1)N[*:1])[*:2]; Nle = CCCC[C@H](N)C(=O)O

What was measured:
[1] = organism: Cavia porcellus; assay: The compound was tested for the agonistic activity of amylase secretion by Guinea pig acini; format: functional
[2] = organism: Cavia porcellus; assay: The compound was tested for the agonistic activity of contractile activities of Guinea pig ileum; format: functional

EC50 [1] [nM] | EC50 [2] [nM] | SMILES
4.5 | 28 | CCCC[C@H](NC(=O)[C@H](Cc1c[nH]c2ccccc12)NC(=O)CNC(=O)[C@H](CCCC)NC(=O)[C@@H](Cc1ccc(OS(=O)(=O)O)cc1)NC(=O)OC(C)(C)C)C(=O)N[C@@H](CC(=O)O)C(=O)N[C@@H](Cc1ccccc1)C(N)=O
0.28 |  | CCCC[C@H](NC(=O)[C@H](Cc1ccc(OS(=O)(=O)O)cc1)NC(=O)OC(C)(C)C)C(=O)NCC(=O)N[C@@H](Cc1c[nH]c2ccccc12)C(=O)N[C@@H](CCCC)C(=O)N[C@@H](CC(=O)O)C(=O)N[C@@H](Cc1ccccc1)C(N)=O
0.33 | 3.8 | CCCC[C@H](NC(=O)[C@H](Cc1ccc(CS(=O)(=O)O)cc1)NC(C)=O)C(=O)NCC(=O)N[C@@H](Cc1c[nH]c2ccccc12)C(=O)N[C@@H](CCCC)C(=O)N[C@@H](CC(=O)O)C(=O)N[C@@H](Cc1ccccc1)C(N)=O (Ac-[Phe(4-CH2SO3H)][Nle]GW[Nle]DF-NH2)
1.6 | 17 | CCCC[C@H](NC(=O)[C@H](Cc1c[nH]c2ccccc12)NC(=O)CNC(=O)[C@H](CCCC)NC(=O)[C@@H](Cc1ccc(CS(=O)(=O)O)cc1)NC(C)=O)C(=O)N[C@@H](CC(=O)O)C(=O)N[C@@H](Cc1ccccc1)C(N)=O (Ac-[X1][Nle]GW[Nle]DF-NH2)

SMILES | EC50 [1] [nM] | EC50 [2] [nM]
CSCC[C@H](NC(=O)[C@H](Cc1ccc(OS(=O)(=O)O)cc1)NC(=O)[C@@H](N)CC(=O)O)C(=O)NCC(=O)N[C@@H](Cc1c[nH]c2ccccc12)C(=O)N[C@@H](CCSC)C(=O)N[C@@H](CC(=O)O)C(=O)N[C@@H](Cc1ccccc1)C(N)=O [SINCALIDE] | 0.1 | 
